The text below walks through data of patent publication US9956204B2, “Composition for exterminating scuticociliates in fish including mebendazole” (NATIONAL INSTITUTE OF FISHERIES SCIENCE, priority 2016, dated 2018).

Experiment [1] concerns scuticociliates. Briefly: Scuticociliates extermination effect of candidate substances in MEM medium. Type of experiment: cell-based. To be noted: MEM medium. On the procedure: CHSE-214 cell line into which scuticociliates were inoculated was cultured in advance. The CHSE-214 cell line was cultured in an incubator using an MEM medium at 22° C. Scuticociliates inoculated into the cell line proliferated for 3 days by which the number reaches to be capable of analyzing in vitro anti-scuticociliates effect. Scuticociliates that feed on the cell line and sufficiently grow were mixed with the candidate substance and the activity of scuticociliates was measured.
In order to analyze the antiparasitic activity of the above 19 types of candidate substances of scuticociliates extermination drugs, scuticociliates were cultured for 3 days, and 100 μl (1×10^5) was dispensed into each well of 96 wells. The candidate substances were diluted by each concentration and the final volume was dispensed into 100 μl. Thereafter, the two were mixed and finally made into 200 μl.

Experiment [2] concerns scuticociliates. Briefly: Scuticociliates extermination effect of candidate substances in seawater medium. The experiment is classed as cell-based. As to conditions: seawater medium, 4 hour. On the procedure:
For this, scuticociliates were cultured in CHSE-214 cell line (using MEM medium), and then scuticociliates were collected and centrifuged with sterilized seawater or artificial seawater (20‰) to replace them with a seawater medium. Each of 100 μl (1×10^5) was dispensed into each well of 96 wells, followed by further culture for 30 minutes. The candidate substances diluted in seawater to have a volume of 100 μl per each concentration were mixed with scuticociliates to have the final volume of 200 μl and cultured for 4 hour.

Molecules are shown by their SMILES.

Regarding `O=[N+]([O-])NC1=NCCN1Cc1ccc(Cl)nc1` [Imidacloprid], the “Survival or Death of scuticociliates (activity and shape, microscope)” value (“Survival or Death of scuticociliates” for short) is reported as “Survival” in the experiment with scuticociliates [1] (Dosage 500 ppm); “Survival” in the experiment on scuticociliates [1] (Dosage 600 ppm); “Survival” in the experiment on scuticociliates [1] (Dosage 700 ppm); “Survival” in the experiment on scuticociliates [1] (Dosage 800 ppm); “Δ” in the experiment with scuticociliates [1] (Dosage 900 ppm); “Δ” in the experiment with scuticociliates [1] (Dosage 1000 ppm). Further, the “Survival or Death of scuticociliates” value with scuticociliates [1] (Dosage 2000 ppm) is “Death”; in the experiment on scuticociliates [1] (Dosage 5000 ppm) it was “Death”; with scuticociliates [2] (Dosage 500 ppm), “Survival”; with scuticociliates [2] (Dosage 1000 ppm) it was “Δ”; in the experiment on scuticociliates [2] (Dosage 1200 ppm) it was “Δ”; in the experiment on scuticociliates [2] (Dosage 1400 ppm), “Death”. Further, the “Survival or Death of scuticociliates” value in the experiment on scuticociliates [2] (Dosage 1500 ppm), with scuticociliates [2] (Dosage 2000 ppm) and in the experiment on scuticociliates [2] (Dosage 2500 ppm) was “Death” each time.

For the compound `CC[C@H](C)[C@H]1O[C@]2(CC[C@@H]1C)C[C@@H]1C[C@@H](C/C=C(\C)[C@@H](O[C@H]3C[C@H](OC)[C@@H](O[C@H]4C[C@H](OC)[C@@H](O)[C@H](C)O4)[C@H](C)O3)[C@@H](C)/C=C/C=C3\CO[C@@H]4[C@H](O)C(C)=C[C@@H](C(=O)O1)[C@]34O)O2` [Ivermectin], the “Survival or Death of scuticociliates” value in the experiment with scuticociliates [1] (Dosage 500 ppm), in the experiment with scuticociliates [1] (Dosage 1000 ppm), in the experiment on scuticociliates [1] (Dosage 1500 ppm), in the experiment with scuticociliates [1] (Dosage 2000 ppm), in the experiment on scuticociliates [1] (Dosage 2500 ppm) and in the experiment with scuticociliates [1] (Dosage 3000 ppm) was “Survival” each time. For the same compound, the “Survival or Death of scuticociliates” value in the experiment with scuticociliates [1] (Dosage 3500 ppm), with scuticociliates [1] (Dosage 4000 ppm), in the experiment with scuticociliates [2] (Dosage 500 ppm), in the experiment with scuticociliates [2] (Dosage 1000 ppm), in the experiment with scuticociliates [2] (Dosage 1500 ppm) and in the experiment with scuticociliates [2] (Dosage 2000 ppm) was “Survival” in each case. Further, the “Survival or Death of scuticociliates” value in the experiment on scuticociliates [2] (Dosage 2500 ppm), with scuticociliates [2] (Dosage 3000 ppm), in the experiment on scuticociliates [2] (Dosage 3500 ppm) and in the experiment on scuticociliates [2] (Dosage 4000 ppm) was “Survival” in each case.

`c1ccc([C@H]2CN3CCSC3=N2)cc1` [Levamisol]: the “Survival or Death of scuticociliates” value with scuticociliates [1] (Dosage 500 ppm), in the experiment on scuticociliates [1] (Dosage 1000 ppm), in the experiment with scuticociliates [1] (Dosage 1500 ppm), with scuticociliates [1] (Dosage 2000 ppm), with scuticociliates [1] (Dosage 2500 ppm) and in the experiment with scuticociliates [1] (Dosage 3000 ppm) was “Survival” throughout. Further, the “Survival or Death of scuticociliates” value with scuticociliates [1] (Dosage 3500 ppm), in the experiment with scuticociliates [1] (Dosage 4000 ppm), in the experiment with scuticociliates [2] (Dosage 500 ppm), in the experiment with scuticociliates [2] (Dosage 1000 ppm), in the experiment on scuticociliates [2] (Dosage 1500 ppm) and in the experiment with scuticociliates [2] (Dosage 2000 ppm) was “Survival” in each case. The “Survival or Death of scuticociliates” value with scuticociliates [2] (Dosage 2500 ppm), in the experiment with scuticociliates [2] (Dosage 3000 ppm), in the experiment on scuticociliates [2] (Dosage 3500 ppm) and in the experiment on scuticociliates [2] (Dosage 4000 ppm) was “Survival” each time.

As to `COC(=O)Nc1nc2ccc([S+]([O-])c3ccccc3)cc2[nH]1` (stereo not shown) [Oxfendazole], the “Survival or Death of scuticociliates” value with scuticociliates [1] (Dosage 10 ppm), in the experiment with scuticociliates [1] (Dosage 50 ppm), with scuticociliates [1] (Dosage 100 ppm), in the experiment on scuticociliates [1] (Dosage 200 ppm), with scuticociliates [1] (Dosage 300 ppm) and with scuticociliates [1] (Dosage 400 ppm) was “Survival” each time. Moreover, the “Survival or Death of scuticociliates” value was “Survival” in the experiment with scuticociliates [1] (Dosage 500 ppm); “Survival” in the experiment with scuticociliates [1] (Dosage 600 ppm); “Δ” in the experiment on scuticociliates [1] (Dosage 700 ppm); “Δ” with scuticociliates [1] (Dosage 800 ppm); “Δ” with scuticociliates [1] (Dosage 900 ppm); “Death” in the experiment with scuticociliates [1] (Dosage 1000 ppm). For the same compound, the “Survival or Death of scuticociliates” value in the experiment on scuticociliates [2] (Dosage 10 ppm), in the experiment with scuticociliates [2] (Dosage 50 ppm), in the experiment with scuticociliates [2] (Dosage 100 ppm), in the experiment with scuticociliates [2] (Dosage 200 ppm), in the experiment on scuticociliates [2] (Dosage 300 ppm) and in the experiment on scuticociliates [2] (Dosage 400 ppm) was “Survival” in each case. Moreover, the “Survival or Death of scuticociliates” value in the experiment on scuticociliates [2] (Dosage 500 ppm) is “Survival”; with scuticociliates [2] (Dosage 600 ppm) it was “Survival”; with scuticociliates [2] (Dosage 700 ppm) it was “Δ”; in the experiment with scuticociliates [2] (Dosage 800 ppm) it was “Δ”; in the experiment with scuticociliates [2] (Dosage 900 ppm), “Δ”; with scuticociliates [2] (Dosage 1000 ppm), “Death”.

Turning to `CCCOc1ccc2nc(NC(=O)OC)[nH]c2c1` [Oxibendazole], the “Survival or Death of scuticociliates” value in the experiment with scuticociliates [1] (Dosage 500 ppm) is reported as “Survival”; in the experiment on scuticociliates [1] (Dosage 1000 ppm), “Survival”; in the experiment with scuticociliates [1] (Dosage 1500 ppm), “Δ”; with scuticociliates [1] (Dosage 2000 ppm) it was “Δ”; in the experiment with scuticociliates [1] (Dosage 2500 ppm) it was “Death”; with scuticociliates [1] (Dosage 3000 ppm), “Death”. For the same compound, the “Survival or Death of scuticociliates” value in the experiment with scuticociliates [1] (Dosage 3500 ppm) is “Death”; in the experiment with scuticociliates [1] (Dosage 4000 ppm), “Death”; in the experiment on scuticociliates [2] (Dosage 500 ppm), “Survival”; in the experiment with scuticociliates [2] (Dosage 1000 ppm) it was “Survival”; with scuticociliates [2] (Dosage 1500 ppm) it was “Δ”; in the experiment on scuticociliates [2] (Dosage 2000 ppm), “Δ”. The “Survival or Death of scuticociliates” value in the experiment with scuticociliates [2] (Dosage 2500 ppm) is given as “Δ”; with scuticociliates [2] (Dosage 3000 ppm), “Δ”; in the experiment on scuticociliates [2] (Dosage 3500 ppm) it was “Death”; in the experiment with scuticociliates [2] (Dosage 4000 ppm) it was “Death”.

On to `C1CNCCN1` [Piperazine], for which the “Survival or Death of scuticociliates” value in the experiment with scuticociliates [1] (Dosage 500 ppm), in the experiment on scuticociliates [1] (Dosage 1000 ppm), in the experiment on scuticociliates [1] (Dosage 1500 ppm), in the experiment on scuticociliates [1] (Dosage 2000 ppm), with scuticociliates [1] (Dosage 2500 ppm) and in the experiment with scuticociliates [1] (Dosage 3000 ppm) was “Survival” throughout. In addition, the “Survival or Death of scuticociliates” value in the experiment with scuticociliates [1] (Dosage 3500 ppm), with scuticociliates [1] (Dosage 4000 ppm), in the experiment on scuticociliates [2] (Dosage 500 ppm), in the experiment with scuticociliates [2] (Dosage 1000 ppm), with scuticociliates [2] (Dosage 1500 ppm) and with scuticociliates [2] (Dosage 2000 ppm) was “Survival” in each case. Also, the “Survival or Death of scuticociliates” value in the experiment with scuticociliates [2] (Dosage 2500 ppm), in the experiment with scuticociliates [2] (Dosage 3000 ppm), with scuticociliates [2] (Dosage 3500 ppm) and with scuticociliates [2] (Dosage 4000 ppm) was “Survival” each time.
